This is an account of results in US9539260B2, “Dihydro-benzo-oxazine and dihydro-pyrido-oxazine derivatives” (Novartis AG, priority 2012, dated 2017).

One assay addresses PI3K alpha (Homo sapiens (Human), UniProt P42336). The experiment in a line: Enzymatic PI3K alpha isoform inhibition (lipid kinase activity, Kinase-Glo luminescence). The format is biochemical. To be noted: Enzymatic assay. Summed up:
(§1)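 IC50s derive from 4-parameter logistic fits of % inhibition across 8 concentrations (usually 10 to 0.003 μM). Lipid kinase reaction: PI3K (10 nM) plus phosphatidylinositol (5 μg/mL) started with 2 μM ATP, stopped near 50% ATP depletion; leftover ATP quantified by Kinase-Glo luminescence.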
A general note: Kinase-Glo reads ATP consumption through a luciferase reaction.

For a further assay, the target named is PI3K delta (Homo sapiens (Human), UniProt O00329). Kind of assay: Enzymatic PI3K delta isoform inhibition (lipid kinase activity, Kinase-Glo luminescence). The format is biochemical. To be noted: Enzymatic assay. The essentials:
as §1

The term IC50 denotes the point on the concentration scale where inhibition reaches its midpoint. Higher therefore signals weaker potency.

Chain of PI3K alpha (P42336 other isoform, or with tags, fused parts or gaps): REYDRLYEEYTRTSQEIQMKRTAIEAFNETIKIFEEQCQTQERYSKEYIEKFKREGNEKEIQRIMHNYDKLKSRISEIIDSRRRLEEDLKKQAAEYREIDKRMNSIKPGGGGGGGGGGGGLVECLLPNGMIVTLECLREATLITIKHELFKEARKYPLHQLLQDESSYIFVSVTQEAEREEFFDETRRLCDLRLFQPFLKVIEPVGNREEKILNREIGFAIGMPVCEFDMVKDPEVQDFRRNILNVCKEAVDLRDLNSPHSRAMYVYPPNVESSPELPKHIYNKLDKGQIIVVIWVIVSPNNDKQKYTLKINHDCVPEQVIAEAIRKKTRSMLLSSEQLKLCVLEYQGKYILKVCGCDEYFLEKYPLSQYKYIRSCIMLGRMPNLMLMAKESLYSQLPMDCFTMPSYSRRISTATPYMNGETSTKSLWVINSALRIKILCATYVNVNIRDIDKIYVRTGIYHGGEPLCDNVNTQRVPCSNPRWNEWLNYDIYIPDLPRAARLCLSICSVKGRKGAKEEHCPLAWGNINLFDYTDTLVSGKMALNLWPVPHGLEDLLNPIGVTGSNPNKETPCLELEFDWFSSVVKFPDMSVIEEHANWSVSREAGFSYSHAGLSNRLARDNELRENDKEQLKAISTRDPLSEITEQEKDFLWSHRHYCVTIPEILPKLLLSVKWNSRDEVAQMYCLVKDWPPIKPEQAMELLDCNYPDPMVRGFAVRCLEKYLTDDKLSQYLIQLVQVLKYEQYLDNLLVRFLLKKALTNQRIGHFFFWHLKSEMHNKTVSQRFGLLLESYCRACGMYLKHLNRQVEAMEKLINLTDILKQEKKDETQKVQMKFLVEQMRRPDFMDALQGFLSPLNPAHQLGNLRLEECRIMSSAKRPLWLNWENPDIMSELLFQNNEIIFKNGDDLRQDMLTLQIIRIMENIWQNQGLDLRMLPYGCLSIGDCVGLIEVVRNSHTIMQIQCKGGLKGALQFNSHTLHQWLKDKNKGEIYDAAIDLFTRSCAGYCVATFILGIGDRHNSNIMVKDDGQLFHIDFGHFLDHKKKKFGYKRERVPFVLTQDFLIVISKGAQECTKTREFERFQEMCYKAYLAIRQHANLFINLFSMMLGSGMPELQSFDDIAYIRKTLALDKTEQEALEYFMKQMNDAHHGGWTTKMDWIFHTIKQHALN
Chain of PI3K delta (O00329 other isoform, or with tags, fused parts or gaps linker GGGGGG): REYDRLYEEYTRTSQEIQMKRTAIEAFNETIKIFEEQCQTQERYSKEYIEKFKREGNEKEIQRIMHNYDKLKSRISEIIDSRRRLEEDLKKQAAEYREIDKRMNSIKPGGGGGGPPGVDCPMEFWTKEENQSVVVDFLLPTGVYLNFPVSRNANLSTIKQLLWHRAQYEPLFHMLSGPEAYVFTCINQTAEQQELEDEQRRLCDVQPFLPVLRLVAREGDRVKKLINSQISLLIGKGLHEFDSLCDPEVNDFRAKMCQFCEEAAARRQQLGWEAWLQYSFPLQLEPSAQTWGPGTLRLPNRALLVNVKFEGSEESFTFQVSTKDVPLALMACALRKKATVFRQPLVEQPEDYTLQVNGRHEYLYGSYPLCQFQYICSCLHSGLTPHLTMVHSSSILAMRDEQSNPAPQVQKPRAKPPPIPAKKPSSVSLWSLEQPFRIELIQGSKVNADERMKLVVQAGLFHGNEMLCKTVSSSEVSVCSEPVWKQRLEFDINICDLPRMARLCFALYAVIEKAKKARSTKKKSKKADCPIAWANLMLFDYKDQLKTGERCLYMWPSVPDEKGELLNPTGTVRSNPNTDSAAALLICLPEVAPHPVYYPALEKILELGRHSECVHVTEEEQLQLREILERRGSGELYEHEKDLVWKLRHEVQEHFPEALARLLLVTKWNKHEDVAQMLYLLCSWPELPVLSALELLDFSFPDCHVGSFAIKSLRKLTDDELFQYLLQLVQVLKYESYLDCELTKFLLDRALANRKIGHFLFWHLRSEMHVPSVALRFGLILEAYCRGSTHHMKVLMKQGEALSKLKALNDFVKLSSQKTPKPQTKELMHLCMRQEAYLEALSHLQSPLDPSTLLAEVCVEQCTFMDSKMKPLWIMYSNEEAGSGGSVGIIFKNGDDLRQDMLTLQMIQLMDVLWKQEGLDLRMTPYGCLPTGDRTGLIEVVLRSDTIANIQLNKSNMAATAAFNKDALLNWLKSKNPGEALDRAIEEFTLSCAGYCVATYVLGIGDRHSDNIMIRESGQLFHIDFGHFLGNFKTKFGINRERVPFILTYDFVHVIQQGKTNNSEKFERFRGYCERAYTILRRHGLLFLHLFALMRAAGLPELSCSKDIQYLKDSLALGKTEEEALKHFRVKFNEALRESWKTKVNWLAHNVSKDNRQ

Take `COc1cc(N2CCOc3ccc(O[C@H]4CCN(C(=O)C5COCCO5)C4)cc32)cnc1OC` (stereo partly drawn) [Example B39, {(S)-3-[4-(5,6-Dimethoxy-pyridin-3-yl)-3,4-dihydro-2H-benzo[1,4]oxazin-6-yloxy]-pyrrolidin-1-yl}-[1,4]dioxan-2-yl-methanone]: the IC50 was 176 nM at PI3K alpha and 11 nM against PI3K delta.
With `COc1cc(N2CCOc3ccc(O[C@H]4CCN(C(=O)C5CCOC5)C4)cc32)cnc1OC` (stereo partly drawn) [Example B40, {(S)-3-[4-(5,6-Dimethoxy-pyridin-3-yl)-3,4-dihydro-2H-benzo[1,4]oxazin-6-yloxy]-pyrrolidin-1-yl}-(tetrahydro-furan-3-yl)-methanone], the half-inhibitory concentration (IC50) stood at 249 nM at PI3K alpha and 12 nM at PI3K delta.
As to `COc1cc(N2CCOc3ccc(O[C@H]4CCN(C(=O)C5CCS(=O)(=O)C5)C4)cc32)cnc1OC` (stereo partly drawn) [Example B41, {(S)-3-[4-(5,6-Dimethoxy-pyridin-3-yl)-3,4-dihydro-2H-benzo[1,4]oxazin-6-yloxy]-pyrrolidin-1-yl}-(1,1-dioxo-tetrahydro-1lambda*6*-thiophen-3-yl)-methanone], the IC50 stood at 421 nM against PI3K alpha and 25 nM on PI3K delta.
Consider `Cc1cc(N2CCOc3ccc(O[C@H]4CCN(C(=O)C5CCCOC5)C4)cc32)cnc1S(C)(=O)=O` (stereo partly drawn) [Example B42, {(S)-3-[4-(6-Methanesulfonyl-5-methyl-pyridin-3-yl)-3,4-dihydro-2H-benzo[1,4]oxazin-6-yloxy]-pyrrolidin-1-yl}-(tetrahydro-pyran-3-yl)-methanone], for which the figures for the IC50 on PI3K alpha and on PI3K delta were 502 nM and 33 nM, respectively.
On to `COc1cc(N2CCOc3ccc(O[C@H]4CCN(C(=O)C5CCCOC5)C4)cc32)cnc1OC` (stereo partly drawn) [Example B43, {(S)-3-[4-(5,6-Dimethoxy-pyridin-3-yl)-3,4-dihydro-2H-benzo[1,4]oxazin-6-yloxy]-pyrrolidin-1-yl}-(tetrahydro-pyran-3-yl)-methanone], for which the IC50 was 514 nM against PI3K alpha and 57 nM against PI3K delta.
For `COCC(=O)N1CC[C@H](Oc2ccc3c(c2)N(c2cnc(OC)c(OC)c2)CCO3)C1` [Example B44, 1-{(S)-3-[4-(5,6-Dimethoxy-pyridin-3-yl)-3,4-dihydro-2H-benzo[1,4]oxazin-6-yloxy]-pyrrolidin-1-yl}-2-methoxy-ethanone], in that order: 71 nM and 22 nM.
`COc1cc(N2CCOc3ccc(O[C@H]4CCN(C(=O)CCS(C)(=O)=O)C4)cc32)cnc1OC` [Example B45, 1-{(S)-3-[4-(5,6-Dimethoxy-pyridin-3-yl)-3,4-dihydro-2H-benzo[1,4]oxazin-6-yloxy]-pyrrolidin-1-yl}-3-methanesulfonyl-propan-1-one]: the IC50 on PI3K alpha was determined as 574 nM; against PI3K delta, 74.5 nM.
Turning to `COCCC(=O)N1CC[C@H](Oc2ccc3c(c2)N(c2cnc(OC)c(OC)c2)CCO3)C1` [Example B46, 1-{(S)-3-[4-(5,6-Dimethoxy-pyridin-3-yl)-3,4-dihydro-2H-benzo[1,4]oxazin-6-yloxy]-pyrrolidin-1-yl}-3-methoxy-propan-1-one], the IC50 was determined as 2080 nM on PI3K alpha and 226 nM against PI3K delta.
For `COc1cc(N2CCOc3ccc(O[C@H]4CCN(C(=O)C5CCS(=O)(=O)CC5)C4)cc32)cnc1OC` [Example B47, {(S)-3-[4-(5,6-Dimethoxy-pyridin-3-yl)-3,4-dihydro-2H-benzo[1,4]oxazin-6-yloxy]-pyrrolidin-1-yl}-(1,1-dioxo-hexahydro-1lambda*6*-thiopyran-4-yl)-methanone], in that order: 241 nM and 10.7 nM.
For `COc1cc(N2CCOc3ccc(O[C@H]4CCN(C(=O)c5cn(C)cn5)C4)cc32)cnc1OC` [Example B48, {(S)-3-[4-(5,6-Dimethoxy-pyridin-3-yl)-3,4-dihydro-2H-benzo[1,4]oxazin-6-yloxy]-pyrrolidin-1-yl}-(1-methyl-1H-imidazol-4-yl)-methanone], in that order: 109 nM and 7 nM.
For `Cc1cc(N2CCOc3ccc(O[C@H]4CCN(C(=O)C5CCCCC5)C4)cc32)cnc1S(C)(=O)=O` [Example B49, Cyclohexyl-{(S)-3-[4-(6-methanesulfonyl-5-methyl-pyridin-3-yl)-3,4-dihydro-2H-benzo[1,4]oxazin-6-yloxy]-pyrrolidin-1-yl}-methanone], in that order: 450 nM and 7 nM.
With `Cc1cc(N2CCOc3ccc(O[C@H]4CCN(C(=O)[C@H]5CC[C@H](O)CC5)C4)cc32)cnc1S(C)(=O)=O` [Example B50, (4-Hydroxy-cyclohexyl)-{(S)-3-[4-(6-methanesulfonyl-5-methyl-pyridin-3-yl)-3,4-dihydro-2H-benzo[1,4]oxazin-6-yloxy]-pyrrolidin-1-yl}-methanone], the results for the IC50 against PI3K alpha and against PI3K delta were 933 nM and 13 nM, respectively.
Taken in the same sequence, the figures for `Cc1cc(N2CCOc3ccc(O[C@H]4CCN(C(=O)[C@H]5CC[C@@H](O)CC5)C4)cc32)cnc1S(C)(=O)=O` [Example B51, (4-Hydroxy-cyclohexyl)-{(S)-3-[4-(6-methanesulfonyl-5-methyl-pyridin-3-yl)-3,4-dihydro-2H-benzo[1,4]oxazin-6-yloxy]-pyrrolidin-1-yl}-methanone] were 1030 nM and 10 nM.
As for `Cc1cc(N2CCOc3ccc(O[C@H]4CCN(C(=O)C5CCOC5)C4)cc32)cnc1S(C)(=O)=O` (stereo partly drawn) [Example B52, {(S)-3-[4-(6-Methanesulfonyl-5-methyl-pyridin-3-yl)-3,4-dihydro-2H-benzo[1,4]oxazin-6-yloxy]-pyrrolidin-1-yl}-(tetrahydro-furan-3-yl)-methanone], the values for the IC50 on PI3K alpha and against PI3K delta were 556 nM and under 3 nM, respectively.
As to `Cc1cc(N2CCOc3ccc(O[C@H]4CCN(C(=O)C5CCOC5)C4)cc32)cnc1S(C)(=O)=O` (stereo partly drawn) [Example B53, {(S)-3-[4-(6-Methanesulfonyl-5-methyl-pyridin-3-yl)-3,4-dihydro-2H-benzo[1,4]oxazin-6-yloxy]-pyrrolidin-1-yl}-(tetrahydro-furan-3-yl)-methanone], the IC50 is 343 nM on PI3K alpha and 4.5 nM at PI3K delta.
Turning to `COc1cc(N2CCOc3ccc(O[C@H]4CCN(C(=O)C5CCOCC5)C4)cc32)cnc1Cl` [Example B54, {(S)-3-[4-(6-Chloro-5-methoxy-pyridin-3-yl)-3,4-dihydro-2H-benzo[1,4]oxazin-6-yloxy]-pyrrolidin-1-yl}-(tetrahydro-pyran-4-yl)-methanone], the values for the IC50 against PI3K alpha and on PI3K delta were 756 nM and 11 nM, respectively.
Turning to `CCC(=O)N1CC[C@H](Oc2ccc3c(c2)N(c2cnc(Cl)c(OC)c2)CCO3)C1` [Example B55, 1-{(S)-3-[4-(6-Chloro-5-methoxy-pyridin-3-yl)-3,4-dihydro-2H-benzo[1,4]oxazin-6-yloxy]-pyrrolidin-1-yl}-propan-1-one], the results for the IC50 against PI3K alpha and against PI3K delta were 3850 nM and 65 nM, respectively.
In the case of `COc1cc(N2CCOc3ccc(O[C@H]4CCN(C(=O)C5CCS(=O)(=O)CC5)C4)cc32)cnc1Cl` [Example B56, {(S)-3-[4-(6-Chloro-5-methoxy-pyridin-3-yl)-3,4-dihydro-2H-benzo[1,4]oxazin-6-yloxy]-pyrrolidin-1-yl}-(1,1-dioxo-hexahydro-1lambda*6*-thiopyran-4-yl)-methanone], the values for the IC50 at PI3K alpha and against PI3K delta were 1420 nM and 23 nM, respectively.
On to `COc1cc(N2CCOc3ccc(O[C@H]4CCN(C(=O)CCO)C4)cc32)cnc1Cl` [Example B57, 1-{(S)-3-[4-(6-Chloro-5-methoxy-pyridin-3-yl)-3,4-dihydro-2H-benzo[1,4]oxazin-6-yloxy]-pyrrolidin-1-yl}-3-hydroxy-propan-1-one], for which the concentration for half-maximal inhibition (IC50) is 2270 nM against PI3K alpha and 95 nM on PI3K delta.
In the case of `Cc1cc(N2CCOc3ccc(O[C@H]4CCN(C(=O)C5CCOCC5)C4)cc32)cnc1Cl` [Example B58, {(S)-3-[4-(6-Chloro-5-methyl-pyridin-3-yl)-3,4-dihydro-2H-benzo[1,4]oxazin-6-yloxy]-pyrrolidin-1-yl}-(tetrahydro-pyran-4-yl)-methanone], the values for the IC50 against PI3K alpha and on PI3K delta were 366 nM and 4 nM, respectively.
Taken in the same sequence, the figures for `CCC(=O)N1CC[C@H](Oc2ccc3c(c2)N(c2cnc(Cl)c(C)c2)CCO3)C1` [Example B59, 1-{(S)-3-[4-(6-Chloro-5-methyl-pyridin-3-yl)-3,4-dihydro-2H-benzo[1,4]oxazin-6-yloxy]-pyrrolidin-1-yl}-propan-1-one] were 461 nM and 17 nM.
Regarding `Cc1cc(N2CCOc3ccc(O[C@H]4CCN(C(=O)C5CCS(=O)(=O)CC5)C4)cc32)cnc1Cl` [Example B60, {(S)-3-[4-(6-Chloro-5-methyl-pyridin-3-yl)-3,4-dihydro-2H-benzo[1,4]oxazin-6-yloxy]-pyrrolidin-1-yl}-(1,1-dioxo-hexahydro-1lambda*6*-thiopyran-4-yl)-methanone], the IC50 against PI3K alpha is 463 nM; against PI3K delta it was 11 nM.
For `Cc1cc(N2CCOc3ccc(O[C@H]4CCN(C(=O)CCO)C4)cc32)cnc1Cl` [Example B61, 1-{(S)-3-[4-(6-Chloro-5-methyl-pyridin-3-yl)-3,4-dihydro-2H-benzo[1,4]oxazin-6-yloxy]-pyrrolidin-1-yl}-3-hydroxy-propan-1-one], in that order: 732 nM and 37 nM.
Regarding `COc1cc(N2CCOc3ccc(O[C@H]4CCN(C(=O)c5ccc(=O)[nH]c5)C4)cc32)cnc1Cl` [Example B63, 5-{(S)-3-[4-(6-Chloro-5-methoxy-pyridin-3-yl)-3,4-dihydro-2H-benzo[1,4]oxazin-6-yloxy]-pyrrolidine-1-carbonyl}-1H-pyridin-2-one], the concentration for half-maximal inhibition (IC50) against PI3K alpha is 1520 nM; against PI3K delta, 68 nM.
Taken in the same sequence, the figures for `COc1cc(N2CCOc3ccc(O[C@H]4CCN(C(=O)[C@H]5CC[C@H](O)CC5)C4)cc32)cnc1OC` [Example B66, {(S)-3-[4-(5,6-Dimethoxy-pyridin-3-yl)-3,4-dihydro-2H-benzo[1,4]oxazin-6-yloxy]-pyrrolidin-1-yl}-(4-hydroxy-cyclohexyl)-methanone] were 446 nM and 11 nM.
